Values quoted from earlier work, collected in patent US20080153785A1, “Pharmaceutical Compositions Containing Biophosphonate for Improving Oral Absorption” (CHONG KUN DANG PHARMACEUTICAL CORP., priority 2005, published 2008).

Settings: long-term treatment, normally taken

NCCCC(O)(P(=O)(O)O)P(=O)(O)O [alendronate, 4-Amino-1-hydroxybutylidene-1,1-biphosphonate]
incidence of heartburn or epigastric pain: about 36 % of patients
